The values below come from PubChem BioAssay (NCI).

Each structure is given as a SMILES string.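 Assay format: 96-well plates, 48-hour exposure. At the GI50, growth is halved. TGI: concentration producing complete growth inhibition.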

Some test systems named below: MCF7 breast; T-47D breast; DLD-1 colon; M19-MEL melanoma; XF 498 CNS; MDA-N; HOP-18 NSCLC.
Holding throughout (test): NCI anticancer screen, dose series, 48 h

For `O=C(Nc1n[nH]c2nc(-c3ccco3)c(Br)cc12)C1CC1`, in the test on MCF7 breast, the GI50 was more than 7.12 µM and the TGI is more than 25 µM. Also, in the test with T-47D breast, the GI50 was more than 25 µM and the TGI is more than 25 µM.
Regarding `O=C1C2=C(c3ccccc31)C(c1cccc(Cl)c1)NC(=S)N2` (configuration not stated), the TGI in the test on DLD-1 colon, in the test with M19-MEL melanoma and with XF 498 CNS was more than 100 µM in each case.
On to `COc1cc2cc(Oc3ccc(NC(=O)Nc4cccc(C(F)(F)F)c4)cc3)c(C)nc2cc1OCCN1CCCCC1`, for which, in the test with MCF7 breast, the GI50 was 1.63 µM and the TGI amounted to 3.33 µM.
For `COc1cc2c(cc1OC)C(=O)C(Br)CC2` (configuration not stated), the GI50 is 3.13 µM in the test on MCF7 breast and 2.25 µM in the test with T-47D breast. Further, the figures for the TGI with MCF7 breast and in the test on T-47D breast were 13.7 µM and 5.06 µM, respectively.
On to `COc1ccc(/C(=C/c2cc(OC)c(OC)c(OC)c2)[N+](=O)[O-])cc1`, for which, in the test with T-47D breast, the GI50 was 1.65 µM and the TGI was found to be 10.3 µM.
For `Cc1ccc(S(=O)(=O)N/N=C/C(Br)=C(/Br)C(=O)O)cc1`, the TGI in the test on MCF7 breast amounted to 51 µM; with T-47D breast, 23.3 µM; with MDA-N, 18.8 µM.
For the molecule `Cc1ccc(-c2c(C#N)c(N)nc(N3CCOCC3)c2C#N)o1`, in the test on MCF7 breast, the GI50 is 64.9 µM and the TGI is more than 100 µM.
As for `C1=CN2C[n+]3cccc(OCc4ccccc4)c3N=C2C(OCc2ccccc2)=C1`, the TGI in the test on MCF7 breast and in the test on T-47D breast was more than 100 µM throughout.
For `COC(=O)[C@]12CC[C@@H](C)[C@H](C)[C@@H]1C1=CC[C@@H]3[C@@]4(C)CC(=O)[C@H](O)[C@@]5(C)COC(=C45)C[C@@]3(C)[C@]1(C)CC2`, in the test with MCF7 breast, the GI50 is 16.9 µM and the TGI was found to be 35.6 µM. In addition, in the test on T-47D breast, the GI50 is 18.4 µM and the TGI was 38.8 µM.
Turning to `CCCCCCC(=O)C/C(CCC(=O)N(Cc1ccccc1)Cc1ccccc1)=N\Nc1ccc([N+](=O)[O-])cc1[N+](=O)[O-]`, the TGI with DLD-1 colon, in the test on M19-MEL melanoma and in the test with HOP-18 NSCLC was more than 100 µM throughout.
Regarding `NC(N)=NC(CC(=O)O)c1ccccc1` (configuration not stated), the TGI in the test on MCF7 breast, in the test on T-47D breast and in the test with MDA-N was more than 100 µM throughout.
`N#C/C(=C\c1c(-c2ccccc2)[nH]c2ccccc12)C(=O)c1ccc(Cl)cc1`: in the test with MCF7 breast, the GI50 is 0.753 µM and the TGI is 14.5 µM. Besides, in the test with T-47D breast, the GI50 was 2.89 µM and the TGI came to 18.4 µM.
The like results for `O=C(CCCc1c[nH]c2ccccc12)NC1CC(=O)c2c(Br)sc(Br)c21` (configuration not stated) were, in that order, 10.1 µM, 29.5 µM, 26.5 µM and more than 100 µM.
`COc1ccc(-c2cc(-c3ccc(Nc4nc(Nc5ccc(Cl)cc5)nc(Nc5ccc(Cl)cc5)n4)cc3)nc(N)c2C#N)cc1`: in the test on MCF7 breast, the GI50 is 2.59 µM and the TGI was more than 32.3 µM. In the test on T-47D breast, the GI50 was 0.894 µM and the TGI was found to be 5.39 µM.
`COc1ccc(-c2oc3cc(O)c(OC)c(O)c3c(=O)c2OC2OC(CO)C(O)C(O)C2O)cc1` (configuration not stated): the TGI in the test on DLD-1 colon, with M19-MEL melanoma and in the test with HOP-18 NSCLC was more than 100 µM in each case.
Turning to `N#Cc1ccccc1NC(=O)C(=O)C(C(=O)c1ccccc1-c1ccccc1)C1OC(=O)c2ccccc21` (configuration not stated), the TGI in the test with DLD-1 colon was 32.4 µM; with M19-MEL melanoma, 35.3 µM; in the test on XF 498 CNS, 33.6 µM.
As to `COC(=O)c1cnc(=O)n(C2CC(O)C(CO)O2)c1` (configuration not stated), in the test with MCF7 breast, the GI50 was more than 100 µM and the TGI is more than 100 µM. Further, in the test on T-47D breast, the GI50 was more than 100 µM and the TGI is more than 100 µM.
Take `Nc1ccn(C=C=CCO)c(=O)n1`: in the test on MCF7 breast, the GI50 was more than 1000 µM and the TGI is more than 1000 µM. Further, in the test on T-47D breast, the GI50 is more than 1000 µM and the TGI is more than 1000 µM.
Take `CC(=O)[CH-]C(=O)c1ccccc1.CC(=O)[CH-]C(=O)c1ccccc1.CCN(CC)CC[O-].CCN(CC)CC[O-].Cl.[Ti+4]`: in the test with M19-MEL melanoma, the GI50 was 17.6 µM and the TGI is 52.2 µM.
As to `O=C(c1cccs1)c1c(C(F)(F)F)n([O-])c2ccc(C(F)(F)F)cc2[n+]1=O`, in the test with MCF7 breast, the GI50 was 0.294 µM and the TGI is 0.787 µM. In the test on T-47D breast, the GI50 is 0.51 µM and the TGI came out at 1.43 µM.
Regarding `CCOC(=O)Cc1c(Cc2[nH]c(C(=O)OCc3ccccc3)c(CC(=O)OCC)c2CC(=O)OCC)[nH]c(C(=O)OCc2ccccc2)c1CC(=O)OCC`, the TGI in the test with M19-MEL melanoma and in the test with HOP-18 NSCLC was more than 100 µM each time.
`Cc1ccc(S(=O)(=O)NC(CCC(=O)Nc2ccc(Cl)cc2)C(=O)Nc2ccc(Cl)cc2)cc1` (configuration not stated): the GI50 is 0.287 µM with MCF7 breast and 0.151 µM with T-47D breast. Moreover, the results for the TGI in the test with MCF7 breast and with T-47D breast were 6.51 µM and 2.64 µM, respectively.
For `O=C1c2ccccc2-c2c1c1ccccc1c(=O)n2CCO`, the TGI with MCF7 breast, in the test on T-47D breast and with MDA-N was more than 100 µM in each case.
Consider `COc1cc[nH]c1/C=C1\C(=O)Nc2ccc(F)c(C#C[C@@H](O)[C@@H](N)[C@@H](C)O)c21`, for which, in the test with MCF7 breast, the GI50 was 0.545 µM and the TGI is 4.3 µM. In the test with T-47D breast, the GI50 is 0.993 µM and the TGI worked out at 6.07 µM.
For `COc1cc(C(=O)O)c([N+](=O)[O-])c(OC)c1OC`, the TGI with MCF7 breast, in the test with T-47D breast and in the test with MDA-N was more than 100 µM each time.
On to `O=[N+]([O-])c1ccc(N/N=C\c2cc(Cl)ccc2O)nc1`, for which the GI50 in the test on MCF7 breast is 2.73 µM; in the test with T-47D breast it was 2.86 µM. The TGI in the test on MCF7 breast and in the test with T-47D breast was more than 100 µM throughout.
Regarding `CCCCCCCCCCCCc1ccc(C(=O)/C=C/C(=O)O)cc1`, in the test with MCF7 breast, the GI50 was 1.62 µM and the TGI was determined as 3.3 µM. Moreover, in the test on T-47D breast, the GI50 is 1.67 µM and the TGI is 4.11 µM.
With `O=C1C=C[C@]2(C[C@@H](c3cccc(C(F)(F)F)c3)O[C@@H](c3cccc(C(F)(F)F)c3)O2)O1`, in the test with MCF7 breast, the GI50 was 0.389 µM and the TGI stood at 3.68 µM. Further, in the test on T-47D breast, the GI50 was 1.1 µM and the TGI was found to be 3.96 µM.
